The source made the active and inactive calls. The rule behind the calls is not given here.
How the values were obtained:
RAW264.7 = assay: Inhibition of LPS-induced NO production in mouse RAW264.7 cells after 24 hrs by Griess assay; assay type: functional, cell-based; conditions: RAW264.7, 24 h
Influenza A virus [1] = assay: Antiviral activity against influenza A virus H1N1 assessed as inhibition of virus-induced cytopathic effect up to 100 uM after 48 hrs by crystal violet staining based assay; assay type: functional, organism-based
Influenza A virus [2] = assay: Antiviral activity against influenza A virus H3N2 assessed as inhibition of virus-induced cytopathic effect up to 100 uM after 48 hrs by crystal violet staining based assay; assay type: functional, organism-based
K562 = assay: Cytotoxicity against human K562 cells assessed as reduction in cell viability up to 100 uM after 72 hrs by CCK-8 assay; assay type: functional, cell-based
MCF7 = assay: Cytotoxicity against human MCF7 cells assessed as reduction in cell viability up to 100 uM after 72 hrs by CCK-8 assay; assay type: functional, cell-based
A549 = assay: Cytotoxicity against human A549 cells assessed as reduction in cell viability up to 100 uM after 72 hrs by CCK-8 assay; assay type: functional, cell-based
U-937 [3] = assay: Cytotoxicity against human U937 cells assessed as reduction in cell viability up to 100 uM after 72 hrs by CCK-8 assay; assay type: functional, cell-based
HeLa = assay: Cytotoxicity against human HeLa cells assessed as reduction in cell viability up to 100 uM after 72 hrs by CCK-8 assay; assay type: functional, cell-based
HL-60 = assay: Cytotoxicity against human HL60 cells assessed as reduction in cell viability up to 100 uM after 72 hrs by CCK-8 assay; assay type: functional, cell-based
HT-29 [4] = assay: Cytotoxicity against human HT-29 cells assessed as reduction in cell viability up to 100 uM after 72 hrs by CCK-8 assay; assay type: functional, cell-based
DU-145 = assay: Cytotoxicity against human DU145 cells assessed as reduction in cell viability up to 100 uM after 72 hrs by CCK-8 assay; assay type: functional, cell-based
U-937 [5] = assay: Cytotoxicity against human U937 cells assessed as reduction in cell viability after 72 hrs by CCK-8 assay; assay type: functional, cell-based; conditions: U-937, 72 h
HT-29 [6] = assay: Cytotoxicity against human HT-29 cells assessed as reduction in cell viability after 72 hrs by CCK-8 assay; assay type: functional, cell-based; conditions: HT-29, 72 h

## C[C@@H]1C[C@H]2[C@@H]3CCC4=CC(=O)C=C[C@]4(C)[C@@]3(F)[C@@H](O)C[C@]2(C)[C@@]1(O)C(=O)CO [DEXAMETHASONE]
RAW264.7
  IC50: 2.5 µM

## CC1=CC([C@@H](CCC(=O)O)C(=O)O)=C(C)CC[C@@H]1C
RAW264.7
  IC50: 18.3 µM
Influenza A virus [1]
  inhibition: inactive
Influenza A virus [2]
  inhibition: inactive
K562
  Activity: inactive
MCF7
  Activity: inactive
A549
  Activity: inactive
U-937 [3]
  Activity: inactive
HeLa
  Activity: inactive
HL-60
  Activity: inactive
HT-29 [4]
  Activity: inactive
DU-145
  Activity: inactive

## C[C@H]1CC[C@@]2(C)C=CC(=O)C=C2C=C1CO
Influenza A virus [1]
  inhibition: inactive
Influenza A virus [2]
  inhibition: inactive
K562
  Activity: inactive
MCF7
  Activity: inactive
A549
  Activity: inactive
U-937 [3]
  Activity: inactive
HeLa
  Activity: inactive
HL-60
  Activity: inactive
HT-29 [4]
  Activity: inactive
DU-145
  Activity: inactive

## CC1=CC[C@@]2(C)[C@H](O)CC[C@@H](C(=O)O)[C@@H]2C=C1C
Influenza A virus [1]
  inhibition: inactive
Influenza A virus [2]
  inhibition: inactive
K562
  Activity: inactive
MCF7
  Activity: inactive
A549
  Activity: inactive
U-937 [3]
  Activity: inactive
HeLa
  Activity: inactive
HL-60
  Activity: inactive
HT-29 [4]
  Activity: inactive
DU-145
  Activity: inactive

## CC(=O)O[C@H]1C(=O)[C@@]2(C)[C@H]([C@H](OC(=O)c3ccccc3)[C@]3(O)C[C@H](OC(=O)[C@H](O)[C@@H](NC(=O)c4ccccc4)c4ccccc4)C(C)=C1C3(C)C)[C@]1(OC(C)=O)CO[C@@H]1C[C@@H]2O [PACLITAXEL]
U-937 [5]
  IC50: 0.0017 µM
HT-29 [6]
  IC50: 0.003 µM

## COC(OC)C1=CC2=CC(=O)C=C[C@]2(C)CC[C@@H]1C
Influenza A virus [1]
  inhibition: inactive
Influenza A virus [2]
  inhibition: inactive
K562
  Activity: inactive
MCF7
  Activity: inactive
A549
  Activity: inactive
U-937 [3]
  Activity: inactive
HeLa
  Activity: inactive
HL-60
  Activity: inactive
HT-29 [4]
  Activity: inactive
DU-145
  Activity: inactive

## C[C@H]1CC[C@]2(C)C(=CCC[C@H]2O)C=C1CO
Influenza A virus [1]
  inhibition: inactive
Influenza A virus [2]
  inhibition: inactive
K562
  Activity: inactive
MCF7
  Activity: inactive
A549
  Activity: inactive
U-937 [3]
  Activity: inactive
HeLa
  Activity: inactive
HL-60
  Activity: inactive
HT-29 [4]
  Activity: inactive
DU-145
  Activity: inactive

## C[C@H]1CC[C@@]2(C)C=CC(=O)C=C2C=C1C(=O)O
Influenza A virus [1]
  inhibition: inactive
Influenza A virus [2]
  inhibition: inactive
K562
  Activity: inactive
MCF7
  Activity: inactive
A549
  Activity: inactive
U-937 [3]
  Activity: inactive
HeLa
  Activity: inactive
HL-60
  Activity: inactive
HT-29 [4]
  Activity: inactive
DU-145
  Activity: inactive

## C[C@H]1CC[C@]2(C)C(=CCC[C@H]2O)C=C1C(=O)O
Influenza A virus [1]
  inhibition: inactive
Influenza A virus [2]
  inhibition: inactive
K562
  Activity: inactive
MCF7
  Activity: inactive
A549
  Activity: inactive
U-937 [3]
  Activity: inactive
HeLa
  Activity: inactive
HL-60
  Activity: inactive
HT-29 [4]
  Activity: inactive
DU-145
  Activity: inactive

## CC1=CC([C@@H](CCCO)C(=O)O)=C(C)CC[C@@H]1C
RAW264.7
  IC50: 14.6 µM
Influenza A virus [1]
  inhibition: inactive
Influenza A virus [2]
  inhibition: inactive
K562
  Activity: inactive
MCF7
  Activity: inactive
A549
  Activity: inactive
U-937 [3]
  Activity: inactive
HeLa
  Activity: inactive
HL-60
  Activity: inactive
HT-29 [4]
  Activity: inactive
DU-145
  Activity: inactive

## C[C@H]1CC[C@@]2(C)C=CC(=O)C=C2C=C1C=O
Influenza A virus [1]
  inhibition: inactive
Influenza A virus [2]
  inhibition: inactive
K562
  Activity: inactive
MCF7
  Activity: inactive
A549
  Activity: inactive
U-937 [3]
  Activity: inactive
HeLa
  Activity: inactive
HL-60
  Activity: inactive
HT-29 [4]
  Activity: inactive
DU-145
  Activity: inactive
